Test results from patent publication US11103582B2, “Method to achieve extended expression of DNA infused into liver” (IMMUSOFT CORPORATION, priority 2012, dated 2021).

Tested on: Kupffer cells
Conditions: Dog #17: dexamethasone 1 mg/kg days −1, 0, 2, 4 then twice weekly + cyclophosphamide 10 mg/kg day 0 then weekly; no GdCl3; pKT2/CLP-cSEAP//PGK-SB100x into LHV
Description: Infusions of pKT2/clp-cSEAP//PGK-SB100x (FIG. 2) into the left hepatic vein were carried out as described in the text, collecting plasma samples before, during and after the infusion procedure and assaying for heat stable alkaline phosphatase activity.

| Compound | Time after which cSEAP expression was extinguished |
| --- | --- |
| C[C@@H]1C[C@H]2[C@@H]3CCC4=CC(=O)C=C[C@]4(C)[C@@]3(F)[C@@H](O)C[C@]2(C)[C@@]1(O)C(=O)CO [Dexamethasone] | about 4 weeks |
| O=P1(N(CCCl)CCCl)NCCCO1 (centres unmarked) [Cyclophosphamide] | about 4 weeks |
